In US7897621B2, “2-trifluoromethylnicotinamide derivatives as HDL-cholesterol raising agents” (Hoffmann-La Roche Inc., priority 2008, dated 2011):

Key:
THP-1 cells = assay: Cholesterol efflux assay; format: cell-based; details: Homo sapiens; THP-1 cells differentiated to macrophages, [3H]cholesterol loaded, efflux induced by 10 μg/ml Apolipoprotein AI, 6 hrs; percent stimulation over DMSO
Description: The ability of compounds of the invention to stimulate cholesterol efflux is determined in replicate cultures of THP-1 cells in 96-well microplates. Cells are plated at an initial density of 150,000 cells/well and differentiated to macrophages with the addition of PMA (100 ng/ml) for 72 hrs in 10% fetal bovine serum, 3 μI/L of b-mercaptoethanol, RPMI-1640 medium. Cells are washed once with RPMI-1640 and loaded with RPMI-1640 medium containing 2% FCS, 50 μg/ml acetylated LDL, and 10 μCi/ml [^3H]cholesterol for 48 hours at 37° C. After loading the cells are washed once with RPMI-1640 and incubated with the compound of interest from DMSO solutions for an additional 24 hrs in RPMI-1640 medium containing 1 mg/ml fatty acid free-bovine serum albumin (BSA). Upon incubation cells are washed once, and cholesterol efflux is induced by the addition of 10 μg/ml Apolipoprotein Al in RPMI-1640 containing 1 mg/ml BSA and in the presence of the compound for an additional 6 hrs. Following incubation radioactivity is determined in the supernatants and cholesterol efflux is expressed as the percent stimulation over replicate cultures treated only with DMSO. Sigmoidal curves were fitted using the XLfit3 program (ID Business Solutions Ltd. UK) and EC50 values were determined.

cannabinoid CB1 receptor = cannabinoid CB1 receptor (Homo sapiens, UniProt P21554); assay: CB1-receptor binding assay; details: determined as described in WO 2006/106054, page 36
cannabinoid CB1 receptor, sequence (P21554 whole entry): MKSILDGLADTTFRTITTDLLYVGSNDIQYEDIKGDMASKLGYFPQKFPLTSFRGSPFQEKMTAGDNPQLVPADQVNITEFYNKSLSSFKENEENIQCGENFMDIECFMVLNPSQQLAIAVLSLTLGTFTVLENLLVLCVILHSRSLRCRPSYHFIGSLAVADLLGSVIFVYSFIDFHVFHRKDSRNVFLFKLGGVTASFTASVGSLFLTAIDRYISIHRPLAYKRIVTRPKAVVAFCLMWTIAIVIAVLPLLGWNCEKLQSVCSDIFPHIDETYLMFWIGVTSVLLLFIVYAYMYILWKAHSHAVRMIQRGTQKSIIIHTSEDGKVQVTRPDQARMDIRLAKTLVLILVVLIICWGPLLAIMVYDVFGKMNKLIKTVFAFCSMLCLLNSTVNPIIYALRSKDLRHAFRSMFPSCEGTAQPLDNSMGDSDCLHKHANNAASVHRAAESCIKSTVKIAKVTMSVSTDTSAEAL
Description: The affinity of the compounds of formula I of the present invention towards cannabinoid CB1 receptors was determined as described in WO 2006/106054, page 36.

| Compound | EC50 (THP-1 cells) [nM] | IC50 (cannabinoid CB1 receptor) [nM] |
| --- | --- | --- |
| O=C(N[C@@H]1CCCC[C@@H]1O)c1cc(-c2ccc(Cl)cc2)c(OCC(F)(F)F)nc1C(F)(F)F [Example 4B, 5-(4-chloro-phenyl)-N-((1R,2S)-2-hydroxy-cyclohexyl)-6-(2,2,2-trifluoro-ethoxy)-2-trifluoromethyl-nicotinamide] | 1200 | > 10000 |
| CS(=O)(=O)Nc1ccc(-c2cc(C(=O)N[C@@H]3CCCC[C@H]3O)c(C(F)(F)F)nc2OCC(F)(F)F)cc1 [Example 6, N-((1R,2R)-2-hydroxy-cyclohexyl)-5-(4-methanesulfonylamino-phenyl)-6-(2,2,2-trifluoro-ethoxy)-2-trifluoromethyl-nicotinamide] | 560 | > 10000 |
| CC(O)(CNC(=O)c1cc(-c2cccc(Cl)c2)c(OCC(F)(F)F)nc1C(F)(F)F)C1CC1 (stereo not shown) [Example 3, 5-(3-chloro-phenyl)-N-(2-cyclopropyl-2-hydroxy-propyl)-6-(2,2,2-trifluoro-ethoxy)-2-trifluoromethyl-nicotinamide] | 480 | > 10000 |
| C[C@](O)(CNC(=O)c1cc(-c2ccc(Cl)c(Cl)c2)c(OCC(F)(F)F)nc1C(F)(F)F)C1CC1 [Example 2A, N-((R)-2-cyclopropyl-2-hydroxy-propyl)-5-(3,4-dichloro-phenyl)-6-(2,2,2-trifluoro-ethoxy)-2-trifluoromethyl-nicotinamide] | 1630 | > 10000 |
| CC(O)(CNC(=O)c1cc(-c2ccc(Cl)c(Cl)c2)c(OCC(F)(F)F)nc1C(F)(F)F)C1CC1 (stereo not shown) [Example 2, N-(2-cyclopropyl-2-hydroxy-propyl)-5-(3,4-dichloro-phenyl)-6-(2,2,2-trifluoro-ethoxy)-2-trifluoromethyl-nicotinamide] | 1070 | > 10000 |
| O=C(N[C@@H]1CCCC[C@H]1O)c1cc(-c2ccc(Cl)c(Cl)c2)c(OCc2ccccn2)nc1C(F)(F)F [Example 7, 5-(3,4-dichloro-phenyl)-N-((1R,2R)-2-hydroxy-cyclohexyl)-6-(pyridin-2-ylmethoxy)-2-trifluoromethyl-nicotinamide] | 640 | > 10000 |
| O=C(N[C@H]1CCCC[C@H]1O)c1cc(-c2ccc(Cl)cc2)c(OCC(F)(F)F)nc1C(F)(F)F [Example 4C, 5-(4-chloro-phenyl)-N-((1S,2R)-2-hydroxy-cyclohexyl)-6-(2,2,2-trifluoro-ethoxy)-2-trifluoromethyl-nicotinamide] | 2500 | > 10000 |
| CC(O)(CNC(=O)c1cc(-c2ccc(Cl)cc2)c(OCC(F)(F)F)nc1C(F)(F)F)C1CC1 (stereo not shown) [Example 1, 5-(4-chloro-phenyl)-N-(2-cyclopropyl-2-hydroxy-propyl)-6-(2,2,2-trifluoro-ethoxy)-2-trifluoromethyl-nicotinamide] | 450 | ~10000 |
| O=C(N[C@@H]1CCCC[C@H]1O)c1cc(-c2ccc(Cl)cc2)c(OCC(F)(F)F)nc1C(F)(F)F [Example 4, 5-(4-chloro-phenyl)-N-((1R,2R)-2-hydroxy-cyclohexyl)-6-(2,2,2-trifluoro-ethoxy)-2-trifluoromethyl-nicotinamide] | 390 | 5600 |
| CC(C)CC(CO)NC(=O)c1cc(-c2ccc(NS(C)(=O)=O)cc2)c(OCc2ccccn2)nc1C(F)(F)F (stereo not shown) [Example 5, N-(1-hydroxymethyl-3-methyl-butyl)-5-(4-methanesulfonylamino-phenyl)-6-(pyridin-2-ylmethoxy)-2-trifluoromethyl-nicotinamide] | 890 | ~10000 |
| C[C@@](O)(CNC(=O)c1cc(-c2ccc(Cl)c(Cl)c2)c(OCC(F)(F)F)nc1C(F)(F)F)C1CC1 [Example 2B, N-((S)-2-cyclopropyl-2-hydroxy-propyl)-5-(3,4-dichloro-phenyl)-6-(2,2,2-trifluoro-ethoxy)-2-trifluoromethyl-nicotinamide] | 1400 | > 10000 |
